pIC50, pKi: −log10 of the molar value.

Assay [1] deals with Tumour suppressor p53/oncoprotein Mdm2 (Homo sapiens, UniProt P04637+Q00987). As to the kind of experiment: (§1) Inhibition of p53-MDM2 expressed in Escherichia coli BL-21 (DE3) after 1 hr by fluorescence polarization competitive binding assay. (In general: Fluorescence polarisation rises when a labelled molecule tumbles more slowly, as on binding a larger partner.)
Assay [2] has as its target Tumour suppressor p53/oncoprotein Mdm2 (Homo sapiens, UniProt Q00987). The description is as §1.
The test system of the next assay is HCT-116. As to the kind of experiment: Antiproliferative activity against human HCT116 cells expressing wild type p53 after 72 hrs by MTT assay. To be noted: for pIC50: Homo sapiens, HCT-116, 72 h.
For assay [3], the system named is A549. As to the kind of experiment: Cell cycle arrest in human A549 cells expressing wild type p53 assessed as accumulation at G2/M phase at 10 uM after 72 hrs using propidium iodide staining by flow cytometric analysis (reference value: 7.49%). Format: functional. On the technique in general: In flow cytometry, cells or beads pass a laser one at a time.
The test system of assay [4] is A549. As to the kind of experiment: Cell cycle arrest in human A549 cells expressing wild type p53 assessed as accumulation at G0/G1 phase at 10 uM after 72 hrs using propidium iodide staining by flow cytometric analysis (reference value: 73.28%). It is filed as functional.
Another assay concerns KB. As to the kind of experiment: Antiproliferative activity against human KB cells expressing p53 mutant after 72 hrs by MTT assay. Format: functional, cell-based. For orientation: Tetrazolium dyes change colour on reduction, which living cells bring about.
The next assay concerns PC-3. As to the kind of experiment: Antiproliferative activity against p53 deficient human PC3 cells after 72 hrs by MTT assay. To be noted: PC-3, 72 h.
Assay [5] has as its system A549. As to the kind of experiment: Cell cycle arrest in human A549 cells expressing wild type p53 assessed as accumulation at S phase at 10 uM after 72 hrs using propidium iodide staining by flow cytometric analysis (reference value: 19.23%). Format: functional.
The subject of assay [6] is A549. As to the kind of experiment: Antiproliferative activity against human A549 cells expressing wild type p53 after 72 hrs by MTT assay. The note with it: A549, 72 h.

Chain of Tumour suppressor p53/oncoprotein Mdm2 (Homo sapiens, UniProt Q00987) (P04637 whole entry): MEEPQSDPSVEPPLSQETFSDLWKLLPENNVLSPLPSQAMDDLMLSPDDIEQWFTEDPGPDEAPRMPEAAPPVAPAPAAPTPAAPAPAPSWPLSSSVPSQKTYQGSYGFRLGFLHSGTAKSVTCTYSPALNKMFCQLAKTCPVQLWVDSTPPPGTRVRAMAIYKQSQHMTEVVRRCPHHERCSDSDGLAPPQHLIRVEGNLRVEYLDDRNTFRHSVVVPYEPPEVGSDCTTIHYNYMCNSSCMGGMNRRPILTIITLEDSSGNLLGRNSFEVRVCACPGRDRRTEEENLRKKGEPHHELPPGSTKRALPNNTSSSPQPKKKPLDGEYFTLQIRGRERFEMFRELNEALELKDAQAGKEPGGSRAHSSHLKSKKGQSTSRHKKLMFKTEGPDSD
Chain of Tumour suppressor p53/oncoprotein Mdm2 (Homo sapiens, UniProt Q00987) (Q00987 whole entry): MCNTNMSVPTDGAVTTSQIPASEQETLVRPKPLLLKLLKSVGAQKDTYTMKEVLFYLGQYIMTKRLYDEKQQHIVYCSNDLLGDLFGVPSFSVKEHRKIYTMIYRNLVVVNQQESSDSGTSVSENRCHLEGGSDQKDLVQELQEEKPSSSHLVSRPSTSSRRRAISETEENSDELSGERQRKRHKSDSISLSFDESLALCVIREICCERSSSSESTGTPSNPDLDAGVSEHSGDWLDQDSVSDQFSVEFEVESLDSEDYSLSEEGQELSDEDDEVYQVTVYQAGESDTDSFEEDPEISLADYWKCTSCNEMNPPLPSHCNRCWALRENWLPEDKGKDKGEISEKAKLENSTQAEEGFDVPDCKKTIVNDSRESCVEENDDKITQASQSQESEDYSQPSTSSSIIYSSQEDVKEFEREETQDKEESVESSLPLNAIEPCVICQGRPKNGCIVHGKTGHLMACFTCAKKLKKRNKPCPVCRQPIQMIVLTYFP
Chain of Tumour suppressor p53/oncoprotein Mdm2 (Homo sapiens, UniProt P04637+Q00987) (P04637 whole entry): as the sequence (P04637 whole entry) above
Chain of Tumour suppressor p53/oncoprotein Mdm2 (Homo sapiens, UniProt P04637+Q00987) (Q00987 whole entry): as the sequence (Q00987 whole entry) above

Consider `COc1ccc(C2=NC(c3ccc(C(F)(F)F)cc3)C(c3ccc(C(F)(F)F)cc3)N2C(=O)N2CCN(C(C)=O)CC2)c(OC(C)C)c1` (configuration not stated), for which, in assay [1], the Ki result was “Not Active”.
As a reminder, the pKi is −log10 of the Ki, conventionally taken in molar units. Low readings indicate a high Ki, high ones a low Ki. In assay [2], `COCCOC(=O)N1C(c2ccc(OC)cc2OC(C)C)=NC(c2ccc(Cl)cc2)C1c1ccc(Cl)cc1` (configuration not stated) had a pKi of 5.64.
A word on the pIC50: it is −log10 of the IC50, conventionally taken in molar units. Take `COc1ccc(C2=NC(c3ccc(Cl)cc3)C(c3ccc(Cl)cc3)N2C(=O)N2CCN(C(C)=O)CC2)c(OC(C)C)c1` (configuration not stated): the pIC50 in the assay on HCT-116 is 5.34; in the assay on KB, 4.45; in the assay with PC-3, 4.53; in the assay on A549 [6] it was 5.63. Also, the values for the Activity with A549 [3], in the assay on A549 [4] and with A549 [5] were 19.27%, 66.95% and 13.78%, respectively.
Consider `CCN(CC)CC(=O)N1C(c2ccc(OC)cc2OC(C)C)=NC(c2ccc(Cl)cc2)C1c1ccc(Cl)cc1` (configuration not stated), for which the Ki entry in [1] is on record as “Not Active”.
With `CCN(CC)CCC(=O)N1C(c2ccc(OC)cc2OC(C)C)=NC(c2ccc(Cl)cc2)C1c1ccc(Cl)cc1` (configuration not stated), the pIC50 in the assay on HCT-116 was 5.43; in the assay with PC-3 it was 5.48; in the assay with A549 [6], 5.42. The compound also gave a pKi in [2] of 5.91.
Regarding `CCC1=NC(c2ccc(Cl)cc2)C(c2ccc(Cl)cc2)N1C(=O)N(CC)CC` (configuration not stated), the Ki entry in assay [1] is listed as “Not Active”.
Same read-out and setting: as for `CCC1=NC(c2ccc(Cl)cc2)C(c2ccc(Cl)cc2)N1C(=O)NCC(=O)N1CCOCC1` (configuration not stated), the entry is “Not Active”.
With `COc1ccc(C2=NC(c3ccc(Cl)cc3)C(c3ccc(Cl)cc3)N2C(=O)CN2CCCCC2)c(OC(C)C)c1` (configuration not stated), the pKi in assay [2] is 4.09.
As to `COc1ccc(C2=NC(c3ccc(Cl)cc3)C(c3ccc(Cl)cc3)N2C(=O)OCCNC(C)=O)c(OC(C)C)c1` (configuration not stated), the pIC50 is 5.24 with HCT-116, 5.44 in the assay with KB, 4.48 in the assay on PC-3 and 5.04 in the assay with A549 [6]. Further, the Activity in the assay with A549 [3] is recorded as 30.93%; with A549 [4] it was 61.67%; in the assay on A549 [5], 7.4%. In assay [2], the pKi was 6.22.
Turning to `COc1ccc(C2=NC(c3ccc(Cl)cc3)C(c3ccc(Cl)cc3)N2C(=O)CCN2CCN(C)CC2)c(OC(C)C)c1` (configuration not stated), the pIC50 was 5.27 with HCT-116, 5.24 with KB, 5.07 in the assay with PC-3 and 5.50 in the assay on A549 [6]. Besides, in assay [2], the pKi is 6.05.
On to `COc1ccc(C2=NC(c3ccc(Cl)cc3)C(c3ccc(Cl)cc3)N2C(=O)N2CCC(C(=O)O)CC2)c(OC(C)C)c1` (configuration not stated), for which the pKi in assay [2] was 5.06.
The compound `COc1ccc(C2=NC(c3ccc(Cl)cc3)C(c3ccc(Cl)cc3)N2C(=O)CN2CCN(C)CC2)c(OC(C)C)c1` (configuration not stated) gave a pKi in [2] of 4.59.
`CCN(CC)CC(=O)N1C(c2ccc(OC)cc2OC(C)C)=NC(c2ccccc2)C1c1ccccc1` (configuration not stated): in assay [1], the Ki entry is “Not Active”.
Same read-out and setting: then `COc1ccc(C2=NC(c3ccccc3)C(c3ccccc3)N2C(=O)CN2CCN(C)CC2)c(OC(C)C)c1` (configuration not stated), with “Not Active”.
Take `COc1ccc(C2=NC(c3ccc(Cl)cc3)C(c3ccc(Cl)cc3)N2C(=O)CCN2CCOCC2)c(OC(C)C)c1` (configuration not stated): the pIC50 is 5.12 with HCT-116, 5.56 with PC-3 and 5.42 in the assay on A549 [6]. The pKi in assay [2] was 5.89.
Consider `COc1ccc(C2=NC(c3ccc(Cl)cc3)C(c3ccc(Cl)cc3)N2C(=O)OCCN(C)C)c(OC(C)C)c1` (configuration not stated), for which the IC50 entry in the assay on HCT-116 (hct-116) is on record as “Not Active”. Further, the pIC50 with KB was 5.08; in the assay with PC-3, 4.96; in the assay on A549 [6], 4.96. In [2], the pKi was 6.24.
Regarding `CCOCCOC(=O)N1C(c2ccc(OC)cc2OC(C)C)=NC(c2ccc(Cl)cc2)C1c1ccc(Cl)cc1` (configuration not stated), the pKi in assay [2] was 5.86.
For `COc1ccc(C2=NC(c3ccc(Cl)cc3)C(c3ccc(Cl)cc3)N2C(=O)NCC(=O)N2CCOCC2)c(OC(C)C)c1` (configuration not stated), the pIC50 in the assay on HCT-116 is 4.96; with KB, 5.13; in the assay with PC-3, 4.84; with A549 [6], 5.08. Further, the pKi in [2] was 6.32.
For `COc1ccc(C2=NC(c3ccc(Cl)cc3)C(c3ccc(Cl)cc3)N2C(=O)N2CCOCC2)c(OC(C)C)c1` (configuration not stated), the pKi in assay [2] was 5.39.
As for `CCC1=NC(c2ccc(Cl)cc2)C(c2ccc(Cl)cc2)N1C(=O)Nc1ccc(N2CCCC2)cc1` (configuration not stated), the Ki entry in [1] is listed as “Not Active”.
In [2], `COc1ccc(C2=NC(c3ccc(Cl)cc3)C(c3ccc(Cl)cc3)N2C(=O)OCc2ccccc2)c(OC(C)C)c1` (configuration not stated) showed a pKi of 4.49.
Consider `COc1ccc(C2=NC(c3ccc(Cl)cc3)C(c3ccc(Cl)cc3)N2C(=O)N(C)C)c(OC(C)C)c1` (configuration not stated), for which the pKi in assay [2] was 5.48. This pKi is 0.99 log units higher than that of the compound before.
As for `CCC1=NC(c2ccc(Cl)cc2)C(c2ccc(Cl)cc2)N1C(=O)N1CCN(C)CC1` (configuration not stated), the Ki result in assay [1] was “Not Active”.
In turn, `COc1ccc(C2=NC(c3ccc(Cl)cc3)C(c3ccc(Cl)cc3)N2C(=O)CN2CCOCC2)c(OC(C)C)c1` (configuration not stated) had a pKi in assay [2] of 5.58.
As to `COc1ccc(C2=NC(c3ccc(C(F)(F)F)cc3)C(c3ccc(C(F)(F)F)cc3)N2C(=O)CN2CCN(C(C)=O)CC2)c(OC(C)C)c1` (configuration not stated), the Ki entry in [1] is “Not Active”.
With `CCOC(=O)CN(C)C(=O)N1C(c2ccc(OC)cc2OC(C)C)=NC(c2ccc(Cl)cc2)C1c1ccc(Cl)cc1` (configuration not stated), the pKi in assay [2] is 5.80.

The record behind these values is ChEMBL document CHEMBL1817600, “Design, synthesis, and biological evaluation of imidazoline derivatives as p53-MDM2 binding inhibitors” (Bioorg Med Chem, 2011).
